The results in this text go back to patent US9814699B2, “Chemical compounds” (Janssen Pharmaceuticals, Inc., priority 2009, dated 2017).

The subject of assay [1] is HCV genotype 1a subgenomic replicon. Description: HCV replicon assay, genotype 1a subgenomic replicon (luciferase). As to conditions: Hepatitis C virus; genotype 1a replicon stable cell line, luciferase activity measured 48 hours later; read-out: Replicon 1A pEC50 (converted). It is filed as cell-based. As to the method:
(§1) Protocol for Testing and Data Analysis of Compounds in the HCV Replicon Assay
(§2) Compounds were assayed for activity against HCV using the genotype 1a and 1b subgenomic replicon model systems. Stable cell lines bearing the genotype 1a and 1b replicons were used for screening of compounds. Both replicons are bicistronic and contain the firefly luciferase gene. The ET cell line is stably transfected with RNA transcripts harboring a I389luc-ubi-neo/NS3-3′/ET replicon with firefly luciferase-ubiquitin-neomycin phosphotransferase fusion protein and EMCV-IRES driven NS3-5B polyprotein containing the cell culture adaptive mutations (E1202G; T1280I; K1846T) (Krieger at al, 2001 and unpublished). The genotype 1a replicon is a stable cell line licensed from Apath LLC, modified to contain the firefly luciferase gene. The cells were grown in DMEM, supplemented with 10% fetal calf serum, 2 mM Glutamine, Penicillin (100 IU/mL)/Streptomycin (100 μg/mL), 1× nonessential amino acids, and 250-500 μg/mL G418 (“Geneticin”). They were all available through Life Technologies (Bethesda, Md.). The cells were plated at 5×10^3 cells/well in 384 well plates containing compounds. The final concentration of compounds ranged between 0.03 pM to 50 μm and the final DMSO concentration of 0.5-1%.
(§3) Luciferase activity was measured 48 hours later by adding a Steady glo reagent (Promega, Madison, Wis.). Percent inhibition of replication data was plotted relative to no compound control. Under the same condition, cytotoxicity of the compounds was determined using cell titer glo (Promega, Madison, Ws). EC50s were determined from an 11 point dose response curve using 3-4-fold serial dilution for each compound, which spans a concentration range >1000 fold. The level of inhibition for each compound was determined with Activity Base or with BioAssay plus the Excel XC50 module. Percent inhibition was determined with the following equation where the cross-talk corrected value is the value from the test well, the compound positive control mean is the average value of the wells with no compound present, and the DMSO negative control mean is the average value of the wells with DMSO but no cells present.
(§4) [formula] These normalized values are exported to EC50 where they are plotted against the molar compound concentrations using the standard four parameter logistic equation: […]
In general terms: Replicon systems follow genome replication, usually without infectious particles.

Assay [2] concerns HCV genotype 1b subgenomic replicon. Nature of the assay: HCV replicon assay, genotype 1b subgenomic replicon (ET cell line, luciferase). It is filed as cell-based. The settings on record: Hepatitis C virus; genotype 1b replicon ET cell line, luciferase activity measured 48 hours later; read-out: Replicon 1B pEC50 (converted). As to the method:
as §1, §2, §3, §4

As to `COC(=O)N[C@H](C(=O)N1CCC[C@H]1c1ncc(-c2ccc(-c3ccc(-c4cnc([C@@H]5CC6(CN5C(=O)[C@@H](NC(=O)OC)C(C)C)O[C@@H](C)C[C@H](C)O6)[nH]4)cc3)cc2)[nH]1)C(C)C` (stereo partly drawn) [Example 1, methyl [(1S)-1-({(2S)-2-[4-(4′-{2-[(3S,7S,9S)-7,9-dimethyl-2-((2S)-3-methyl-2-{[(methyloxy)carbonyl]amino}butanoyl)-6,10-dioxa-2-azaspiro[4.5]dec-3-yl]-1H-imidazol-4-yl}-4-biphenylyl)-1H-imidazol-2-yl]-1-pyrrolidinyl}carbonyl)-2-methylpropyl]carbamate], the EC50 is 1.58 nM in assay [1] and 0.01 nM in assay [2].
The like results for `COC(=O)N[C@H](C(=O)N1CCC[C@H]1c1ncc(-c2ccc(-c3ccc(-c4cnc([C@@H]5CC6(CN5C(=O)[C@@H](NC(=O)OC)C(C)C)OCCO6)[nH]4)cc3)cc2)[nH]1)C(C)C` [Example 2, methyl [(1S)-2-methyl-1-({(2S)-2-[4-(4′-{2-[(8S)-7-((2S)-3-methyl-2-{[(methyloxy)carbonyl]amino}butanoyl)-1,4-dioxa-7-azaspiro[4.4]non-8-yl]-1H-imidazol-4-yl}-4-biphenylyl)-1H-imidazol-2-yl]-1-pyrrolidinyl}carbonyl)propyl]carbamate] were, in that order, 0.0398 nM and 0.00794 nM.
The like results for `COC(=O)N[C@H](C(=O)N1CC2(C[C@H]1c1ncc(-c3ccc(-c4ccc(-c5cnc([C@@H]6CC7(CN6C(=O)[C@@H](NC(=O)OC)C(C)C)O[C@@H](C)C[C@H](C)O7)[nH]5)cc4)cc3)[nH]1)O[C@@H](C)C[C@H](C)O2)C(C)C` (stereo partly drawn) [Example 3, dimethyl (4,4′-biphenyldiylbis{1H-imidazole-4,2-diyl[(3S,7S,9S)-7,9-dimethyl-6,10-dioxa-2-azaspiro[4.5]decane-3,2-diyl][(2S)-3-methyl-1-oxo-1,2-butanediyl]})biscarbamate] were, in that order, 25.1 nM and 0.0158 nM.
On to `COC(=O)N[C@H](C(=O)N1CC2(C[C@H]1c1ncc(-c3ccc(-c4ccc(-c5cnc([C@@H]6CC7(CN6C(=O)[C@@H](NC(=O)OC)C(C)C)OCCO7)[nH]5)cc4)cc3)[nH]1)OCCO2)C(C)C` [Example 4, dimethyl (4,4′-biphenyldiylbis{1H-imidazole-4,2-diyl(8S)-1,4-dioxa-7-azaspiro[4.4]nonane-8,7-diyl[(2S)-3-methyl-1-oxo-1,2-butanediyl]})biscarbamate], for which the figures for the EC50 in assay [1] and in assay [2] were 0.0398 nM and 0.01 nM, respectively.
The like results for `COC(=O)N[C@@H](C)C(=O)N1CC2(C[C@H]1c1ncc(-c3ccc(-c4ccc(-c5cnc([C@@H]6CCCN6C(=O)[C@@H](NC(=O)OC)C(C)C)[nH]5)cc4)cc3)[nH]1)OCCCO2` [Example 5, methyl ((1S)-1-methyl-2-{(3S)-3-[4-(4′-{2-[(2S)-1-((2S)-3-methyl-2-{[(methyloxy)carbonyl]amino}butanoyl)-2-pyrrolidinyl]-1H-imidazol-4-yl}-4-biphenylyl)-1H-imidazol-2-yl]-6,10-dioxa-2-azaspiro[4.5]dec-2-yl}-2-oxoethyl)carbamate] were, in that order, 0.0794 nM and 0.02 nM.
The like results for `COC(=O)N[C@H](C(=O)N1CCC[C@H]1c1ncc(-c2ccc(-c3ccc(-c4cnc([C@@H]5CC6(CN5C(=O)[C@@H](NC(=O)OC)C(C)C)OCCCO6)[nH]4)cc3)cc2)[nH]1)C(C)C` [Example 6, methyl [(1S)-2-methyl-1-({(2S)-2-[4-(4′-{2-[(3S)-2-((2S)-3-methyl-2-{[(methyloxy)carbonyl]amino}butanoyl)-6,10-dioxa-2-azaspiro[4.5]dec-3-yl]-1H-imidazol-4-yl}-4-biphenylyl)-1H-imidazol-2-yl]-1-pyrrolidinyl}carbonyl)propyl]carbamate] were, in that order, 0.0251 nM and 0.00794 nM.
The like results for `COC(=O)N[C@H](C(=O)N1CCC[C@H]1c1ncc(-c2ccc(-c3ccc(-c4cnc([C@@H]5CC6(CN5C(=O)[C@@H](NC(=O)OC)C(C)C)OCC(C)(C)CO6)[nH]4)cc3)cc2)[nH]1)C(C)C` [Example 7, methyl [(1S)-1-({(2S)-2-[4-(4′-{2-[(3S)-8,8-dimethyl-2-((2S)-3-methyl-2-{[(methyloxy)carbonyl]amino}butanoyl)-6,10-dioxa-2-azaspiro[4.5]dec-3-yl]-1H-imidazol-4-yl}-4-biphenylyl)-1H-imidazol-2-yl]-1-pyrrolidinyl}carbonyl)-2-methylpropyl]carbamate] were, in that order, 0.794 nM and 0.00251 nM.
As to `[2H]C1([2H])OC2(C[C@@H](c3ncc(-c4ccc(-c5ccc(-c6cnc([C@@H]7CCCN7C(=O)[C@@H](NC(=O)OC)C(C)C)[nH]6)cc5)cc4)[nH]3)N(C(=O)[C@@H](NC(=O)OC)C(C)C)C2)OC([2H])([2H])C1([2H])[2H]` [Example 8, methyl [(1S)-2-methyl-1-({(2S)-2-[4-(4′-{2-[(3S)-2-((2S)-3-methyl-2-{[(methyloxy)carbonyl]amino}butanoyl)-6,10-dioxa-2-azaspiro[4.5]dec-3-yl]-1H-imidazol-4-yl}-4-biphenylyl)-1H-imidazol-2-yl]-1-pyrrolidinyl}carbonyl)propyl]carbamate-d6], the EC50 is 0.0316 nM in assay [1] and 0.00794 nM in assay [2].
The like results for `[2H]C1([2H])OC2(C[C@@H](c3ncc(-c4ccc(-c5ccc(-c6cnc([C@@H]7CCCN7C(=O)[C@@H](NC(=O)OC)C(C)C)[nH]6)cc5)cc4)[nH]3)N(C(=O)[C@@H](NC(=O)OC)C(C)C)C2)OC1([2H])[2H]` [Example 9, methyl [(1S)-2-methyl-1-({(2S)-2-[4-(4′-{2-[(8S)-7-((2S)-3-methyl-2-{[(methyloxy)carbonyl]amino}butanoyl)-1,4-dioxa-7-azaspiro[4.4]non-8-yl]-1H-imidazol-4-yl}-4-biphenylyl)-1H-imidazol-2-yl]-1-pyrrolidinyl}carbonyl)propyl]carbamate-d4] were, in that order, 0.0316 nM and 0.00631 nM.
The like results for `COC(=O)N[C@H](C(=O)N1CCC[C@H]1c1ncc(-c2ccc(-c3ccc(-c4cnc([C@@H]5CC6(CN5C(=O)[C@@H](NC(=O)OC)C(C)C)O[C@H](C)[C@@H](C)O6)[nH]4)cc3)cc2)[nH]1)C(C)C` [Example 10, methyl [(1S)-1-({(2S)-2-[4-(4′-{2-[(2R,3R,8S)-2,3-dimethyl-7-((2S)-3-methyl-2-{[(methyloxy)carbonyl]amino}butanoyl)-1,4-dioxa-7-azaspiro[4.4]non-8-yl]-1H-imidazol-5-yl}-4-biphenylyl)-1H-imidazol-2-yl]-1-pyrrolidinyl}carbonyl)-2-methylpropyl]carbamate] were, in that order, 2 nM and 0.01 nM.
The like results for `COC(=O)N[C@H](C(=O)N1CCC[C@H]1c1ncc(-c2ccc(-c3ccc(-c4cnc([C@@H]5CC6(CN5C(=O)[C@@H](NC(=O)OC)C(C)C)O[C@@H](C)[C@H](C)O6)[nH]4)cc3)cc2)[nH]1)C(C)C` [Example 11, methyl [(1S)-1-({(2S)-2-[4-(4′-{2-[(2S,3S,8S)-2,3-dimethyl-7-((2S)-3-methyl-2-{[(methyloxy)carbonyl]amino}butanoyl)-1,4-dioxa-7-azaspiro[4.4]non-8-yl]-1H-imidazol-5-yl}-4-biphenylyl)-1H-imidazol-2-yl]-1-pyrrolidinyl}carbonyl)-2-methylpropyl]carbamate] were, in that order, 1.26 nM and 0.01 nM.
Turning to `COC(=O)N[C@H](C(=O)N1CCC[C@H]1c1nc(-c2ccc(-c3ccc(-c4c[nH]c([C@@H]5CC6(CN5C(=O)[C@@H](NC(=O)OC)C(C)C)SCCS6)n4)cc3)cc2)c[nH]1)C(C)C` [Example 12, methyl [(1S)-2-methyl-1-({(2S)-2-[4-(4′-{2-[(8S)-7-((2S)-3-methyl-2-{[(methyloxy)carbonyl]amino}butanoyl)-1,4-dithia-7-azaspiro[4.4]non-8-yl]-1H-imidazol-4-yl}-4-biphenylyl)-1H-imidazol-2-yl]-1-pyrrolidinyl}carbonyl)propyl]carbamate], the EC50 in assay [1] was 0.0794 nM; in assay [2], 0.00398 nM.
The like results for `CC[C@H](NC(=O)OC)C(=O)N1CC2(C[C@H]1c1nc(-c3ccc(-c4ccc(-c5c[nH]c([C@@H]6CCCN6C(=O)[C@@H](NC(=O)OC)C(C)C)n5)cc4)cc3)c[nH]1)SCCS2` [Example 13, methyl[(1S)-2-methyl-1-({(2S)-2-[4-(4′-{2-[(8S)-7-((2S)-2-{[(methyloxy)carbonyl]amino}butanoyl)-1,4-dithia-7-azaspiro[4.4]non-8-yl]-1H-imidazol-4-yl}-4-biphenylyl)-1H-imidazol-2-yl]-1-pyrrolidinyl}carbonyl)propyl]carbamate] were, in that order, 0.0631 nM and 0.00398 nM.
